Results from patent US6063926A, “Substituted oximes as neurokinin antagonists” (Schering Corporation, priority 1998, dated 2000).

The compounds below were run against T1, NK2 receptor (Homo sapiens, UniProt P21452) (assay: neurokinin receptor binding assay, NK2 (Ki)). Settings: read-out: Ki (NK2).
T1 sequence (P21452 1-398): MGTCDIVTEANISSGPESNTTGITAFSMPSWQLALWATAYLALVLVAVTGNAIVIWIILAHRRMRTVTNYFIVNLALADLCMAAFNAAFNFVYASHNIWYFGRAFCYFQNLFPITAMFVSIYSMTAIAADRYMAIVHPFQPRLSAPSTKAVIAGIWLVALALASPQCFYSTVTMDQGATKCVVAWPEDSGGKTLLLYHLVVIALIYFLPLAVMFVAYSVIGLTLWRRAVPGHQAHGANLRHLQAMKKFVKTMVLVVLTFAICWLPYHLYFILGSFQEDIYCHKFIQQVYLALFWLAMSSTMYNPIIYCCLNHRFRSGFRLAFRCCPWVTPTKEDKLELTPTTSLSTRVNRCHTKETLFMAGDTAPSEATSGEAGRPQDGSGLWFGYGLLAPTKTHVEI
Excerpt: (§1) The in vitro and in vivo activity of the compounds of formula I can be determined by various procedures known in the art, such as a test for their ability to inhibit the activity of the NK1 agonist Substance P, an isolated hamster trachea NK2 assay, a test of the effect of NK1 antagonists on Substance P-induced airway microvascular leakage, measurement of NK2 activity in vivo in guinea pigs, measurement of bronchoconstriction due to NKA, and neurokinin receptor binding assay(s). Typical procedures are described in WO96/34857, published Nov. 7, 1996. NK3 activity is determined by following a procedure similar to that described in the literature, e.g., Molecular Pharmacol., 48 (1995), p. 711-716.
(§2) % Inhibition is the difference between the percent of maximum specific binding (MSB) and 100%. The percent of MSB is defined by the following equation, wherein "dpm" is disintegrations per minute: [formula]
(§3) Using the test procedures described above, the following 35 data (Ki) were obtained for exemplified compounds: […]

Ki | SMILES
4.3 nM | CNC(=O)CC1CCCN(C2CCN(CCC(C(CN(C)C(=O)c3cc(Cl)cc(Cl)c3)=NOCC(=O)NCS(=O)(=O)O)c3ccc(Cl)c(Cl)c3)CC2)C1=O (stereo not drawn) [Example 15J]
0.4 nM | CON=C(N)CON=C(CN(C)C(=O)c1cc(C)cc(C)c1)C(CCN1CCC(N2CCCCC2=O)CC1)c1ccc(Cl)c(Cl)c1 (stereo not drawn) [Example 18M]
3.4 nM | Cc1cc(C)cc(C(=O)N(C)CC(=NOCC(=O)N2CCSCC2)C(CCN2CCC(N3CCCCC3=O)CC2)c2ccc(Cl)c(Cl)c2)c1 (stereo not drawn) [Example 18J]
1 nM | CCN(CC(=NOC)C(CCN1CCC(N2CCCC(CC(=O)NC)C2=O)CC1)c1ccc(Cl)c(Cl)c1)C(=O)c1cc(Cl)cc(Cl)c1 (stereo not drawn) [Example 28B]
1.4 nM | CCON=C(CN(C)C(=O)c1cc(Cl)cc(Cl)c1)C(CCN1CCC(N2CCCC(CC(=O)NC)C2=O)CC1)c1ccc(Cl)c(Cl)c1 (stereo not drawn) [Example 15L]
0.2 nM | CON=C(CN(C)C(=O)c1cc(Cl)cc(Cl)c1)[C@H](CCN1CCC(N2CCC[C@H](CC(N)=O)C2=O)CC1)c1ccc(Cl)c(Cl)c1 [Example 13C]
1.3 nM | CON=C(CN(C)C(=O)c1cc(C)cc(Cl)c1)C(CCN1CCC(N2CCCCC2=O)CC1)c1ccc(Cl)c(Cl)c1 (stereo not drawn) [Example 26]
0.7 nM | CON=C(CNC(=O)c1cc(Cl)cc(Cl)c1)C(CCN1CCC(N2CCC[C@H](CC(N)=O)C2=O)CC1)c1ccc(Cl)c(Cl)c1 (stereo partly drawn) [Example 29C]
0.2 nM | Cc1cc(C)cc(C(=O)N(C)CC(=NOCC(N)=NO)C(CCN2CCC(N3CCCC(CC(=O)N(C)C)C3=O)CC2)c2ccc(Cl)c(Cl)c2)c1 (stereo not drawn) [Example 19C]
1.3 nM | CNC(=O)CC1CCCN(C2CCN(CCC(C(CNC(=O)c3cc(Cl)cc(Cl)c3)=NOC)c3ccc(Cl)c(Cl)c3)CC2)C1=O (stereo not drawn) [Example 29B]
0.7 nM | CNC(=O)CC1CCCN(C2CCN(CCC(C(CN(C)C(=O)c3cc(Cl)cc(Cl)c3)=NO)c3ccc(Cl)c(Cl)c3)CC2)C1=O (stereo not drawn) [Example 15A]
0.2 nM | CN(C)C(=O)CC1CCCN(C2CCN(CCC(C(CN(C)C(=O)c3cc(Cl)cc(Cl)c3)=NOCC(N)=NO)c3ccc(Cl)c(Cl)c3)CC2)C1=O (stereo not drawn) [Example 14D]
1 nM | CON=C(CN(C)C(=O)c1cc(Cl)cc(Cl)c1)C(CCN1CCC(c2ccccc2[S+](C)[O-])CC1)c1ccc(Cl)c(Cl)c1 (stereo not drawn) [Example 36]
0.8 nM | CNC(=O)CC1CCCN(C2CCN(CCC(C(CN(C)C(=O)c3cc(Cl)cc(Cl)c3)=NOCC(N)=NO)c3ccc(Cl)c(Cl)c3)CC2)C1=O (stereo not drawn) [Example 15F]
0.8 nM | CN(C)C(=O)CC1CCCN(C2CCN(CCC(C(CN(C)C(=O)c3cc(Cl)cc(Cl)c3)=NO)c3ccc(Cl)c(Cl)c3)CC2)C1=O (stereo not drawn) [Example 14B]
0.2 nM | CNC(=O)CC1CCCN(C2CCN(CCC(C(CN(C)C(=O)c3cc(Cl)cc(Cl)c3)=NOCF)c3ccc(Cl)c(Cl)c3)CC2)C1=O (stereo not drawn) [Example 15K]

SMILES | Ki
CON=C(N)CON=C(CN(C)C(=O)c1cc(OC)c(OC)c(OC)c1)C(CCN1CCC(O)(c2ccccc2)CC1)c1ccc(Cl)c(Cl)c1 (stereo not drawn) [Example 37] | 0.7 nM
COc1cc(C(=O)N(C)CC(=NOCC(N)=NO)C(CCN2CCC(O)(c3ccccc3)CC2)c2ccc(Cl)c(Cl)c2)cc(OC)c1OC (stereo not drawn) [Example 23] | 0.5 nM

What follows are compounds tested against NK1 receptor (Homo sapiens, UniProt P25103) (assay: neurokinin receptor binding assay, NK1 (Ki)). Settings: read-out: Ki (NK1).
Sequence of NK1 receptor (P25103 whole entry): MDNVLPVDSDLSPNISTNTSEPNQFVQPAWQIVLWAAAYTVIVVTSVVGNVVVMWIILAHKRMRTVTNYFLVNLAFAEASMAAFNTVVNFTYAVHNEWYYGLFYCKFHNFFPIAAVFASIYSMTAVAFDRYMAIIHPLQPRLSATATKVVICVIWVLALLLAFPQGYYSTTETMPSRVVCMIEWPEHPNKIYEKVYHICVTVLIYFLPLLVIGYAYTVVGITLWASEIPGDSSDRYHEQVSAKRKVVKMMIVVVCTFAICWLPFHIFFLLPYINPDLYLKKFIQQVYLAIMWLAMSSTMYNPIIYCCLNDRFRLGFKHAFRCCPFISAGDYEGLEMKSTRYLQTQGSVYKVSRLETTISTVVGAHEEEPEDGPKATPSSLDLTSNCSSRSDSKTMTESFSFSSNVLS
Excerpt: as §1, §2, §3

Ki | SMILES
0.7 nM | CNC(=O)CC1CCCN(C2CCN(CCC(C(CN(C)C(=O)c3cc(Cl)cc(Cl)c3)=NOCC(=O)NCS(=O)(=O)O)c3ccc(Cl)c(Cl)c3)CC2)C1=O (stereo not drawn) [Example 15J]
0.2 nM | CON=C(N)CON=C(CN(C)C(=O)c1cc(C)cc(C)c1)C(CCN1CCC(N2CCCCC2=O)CC1)c1ccc(Cl)c(Cl)c1 (stereo not drawn) [Example 18M]
0.3 nM | Cc1cc(C)cc(C(=O)N(C)CC(=NOCC(=O)N2CCSCC2)C(CCN2CCC(N3CCCCC3=O)CC2)c2ccc(Cl)c(Cl)c2)c1 (stereo not drawn) [Example 18J]
0.8 nM | CCN(CC(=NOC)C(CCN1CCC(N2CCCC(CC(=O)NC)C2=O)CC1)c1ccc(Cl)c(Cl)c1)C(=O)c1cc(Cl)cc(Cl)c1 (stereo not drawn) [Example 28B]
1 nM | CCON=C(CN(C)C(=O)c1cc(Cl)cc(Cl)c1)C(CCN1CCC(N2CCCC(CC(=O)NC)C2=O)CC1)c1ccc(Cl)c(Cl)c1 (stereo not drawn) [Example 15L]
0.4 nM | CON=C(CN(C)C(=O)c1cc(Cl)cc(Cl)c1)[C@H](CCN1CCC(N2CCC[C@H](CC(N)=O)C2=O)CC1)c1ccc(Cl)c(Cl)c1 [Example 13C]
1 nM | CON=C(CN(C)C(=O)c1cc(C)cc(Cl)c1)C(CCN1CCC(N2CCCCC2=O)CC1)c1ccc(Cl)c(Cl)c1 (stereo not drawn) [Example 26]
2.6 nM | CON=C(CNC(=O)c1cc(Cl)cc(Cl)c1)C(CCN1CCC(N2CCC[C@H](CC(N)=O)C2=O)CC1)c1ccc(Cl)c(Cl)c1 (stereo partly drawn) [Example 29C]
0.2 nM | Cc1cc(C)cc(C(=O)N(C)CC(=NOCC(N)=NO)C(CCN2CCC(N3CCCC(CC(=O)N(C)C)C3=O)CC2)c2ccc(Cl)c(Cl)c2)c1 (stereo not drawn) [Example 19C]
5.2 nM | CNC(=O)CC1CCCN(C2CCN(CCC(C(CNC(=O)c3cc(Cl)cc(Cl)c3)=NOC)c3ccc(Cl)c(Cl)c3)CC2)C1=O (stereo not drawn) [Example 29B]
0.2 nM | CNC(=O)CC1CCCN(C2CCN(CCC(C(CN(C)C(=O)c3cc(Cl)cc(Cl)c3)=NO)c3ccc(Cl)c(Cl)c3)CC2)C1=O (stereo not drawn) [Example 15A]
0.3 nM | CN(C)C(=O)CC1CCCN(C2CCN(CCC(C(CN(C)C(=O)c3cc(Cl)cc(Cl)c3)=NOCC(N)=NO)c3ccc(Cl)c(Cl)c3)CC2)C1=O (stereo not drawn) [Example 14D]
0.8 nM | CON=C(CN(C)C(=O)c1cc(Cl)cc(Cl)c1)C(CCN1CCC(c2ccccc2[S+](C)[O-])CC1)c1ccc(Cl)c(Cl)c1 (stereo not drawn) [Example 36]
0.4 nM | CNC(=O)CC1CCCN(C2CCN(CCC(C(CN(C)C(=O)c3cc(Cl)cc(Cl)c3)=NOCC(N)=NO)c3ccc(Cl)c(Cl)c3)CC2)C1=O (stereo not drawn) [Example 15F]
0.3 nM | CN(C)C(=O)CC1CCCN(C2CCN(CCC(C(CN(C)C(=O)c3cc(Cl)cc(Cl)c3)=NO)c3ccc(Cl)c(Cl)c3)CC2)C1=O (stereo not drawn) [Example 14B]
0.5 nM | CNC(=O)CC1CCCN(C2CCN(CCC(C(CN(C)C(=O)c3cc(Cl)cc(Cl)c3)=NOCF)c3ccc(Cl)c(Cl)c3)CC2)C1=O (stereo not drawn) [Example 15K]

SMILES | Ki
CON=C(N)CON=C(CN(C)C(=O)c1cc(OC)c(OC)c(OC)c1)C(CCN1CCC(O)(c2ccccc2)CC1)c1ccc(Cl)c(Cl)c1 (stereo not drawn) [Example 37] | 0.7 nM
COc1cc(C(=O)N(C)CC(=NOCC(N)=NO)C(CCN2CCC(O)(c3ccccc3)CC2)c2ccc(Cl)c(Cl)c2)cc(OC)c1OC (stereo not drawn) [Example 23] | 0.8 nM
